Measured values from patent US20050215614A1, “Substituted indoles and their use as hcv inhibitors” (Rigel Pharmaceuticals, Inc., priority 2003, published 2005).

Tested on: HCV replicon
Assay: HCV Replicon Assay (luciferase, 5-2 Luc replicon cells)
Assay type: cell-based
Details: 5-2 Luc replicon cells (Huh7), 24-48 hours with compound, luciferase counts
Protocol: Actively dividing 5-2 Luc replicon cells were seeded at the density of 5000-7500 cells/well in the volume of 90 μl/well into 96 well plate(s). The cells were then incubated at 37° C. and 5% CO2 for 24 hours. The 5-2 cells are replicon cells licensed from Ralf Bartenschlager (Germany) and have a self-replicating RNA molecule in the Huh7 cell; the RNA contains HCV non-structural proteins that make the self-replication possible.
Various concentrations of compounds (in the volume of 10 μl) were added into each well 24 hours after seeding the cells. The cells were incubated for another 24-48 hours before luciferase assay.
After incubating the 5-2 Luc replicon cells with the compounds for 24-48 hours, media were aspirated from each well and Bright-Glo (Promega) luciferase assay reagents were added to each well according to the manufacturer′s manual. Briefly, the Bright-Glo reagent was diluted with equal volume of PBS and an aliquote (100 μl) was added to each well. After incubating the plate at room temperature for 5 minutes, luciferase counts were taken using a luminometer.

Compound: CC(C)(C)c1cc2cc(NC(=O)Cc3cccc4ccccc34)ccc2[nH]1 [Compound 5a, 2-t-Butyl-5-(naphth-1-yl-ethanoyl)aminoindole]
- Activity (concentration of inhibitory activity): b (“b” indicates activity is at a concentration greater than 10 micromolar)

Compound: CC(C)(C)c1cc2cc(NC(=O)Cc3cccc([N+](=O)[O-])c3)ccc2[nH]1 [Compound 5b, 2-t-Butyl-5-(3-nitrophenylethanoyl)aminoindole]
- Activity (concentration of inhibitory activity): b (“b” indicates activity is at a concentration greater than 10 micromolar)

Compound: CC(C)(C)c1cc2cc(NC(=O)C3CCCC3)ccc2[nH]1 [Compound 5c, 2-t-Butyl-5-(cyclopentanecarbonyl)aminoindole]
- Activity (concentration of inhibitory activity): a (“a” indicates inhibitory activity at a concentration of less than 10 micromolar)

Compound: CC(C)(C)c1cc2cc(NC(=O)C3(c4ccc(Cl)cc4)CCCC3)ccc2[nH]1 [Compound 5d, 2-t-Butyl-5-(1-(4chlorophenyl)-1-cyclopentanecarbonyl)aminoindole]
- Activity (concentration of inhibitory activity): b (“b” indicates activity is at a concentration greater than 10 micromolar)

Compound: CC(C)(C)c1cc2cc(NC(=O)c3c(F)cccc3F)ccc2[nH]1 [Compound 5e, 2-t-Butyl-5-(2′,6′-difluorophenylcarbonyl)aminoindole]
- Activity (concentration of inhibitory activity): a (“a” indicates inhibitory activity at a concentration of less than 10 micromolar)

Compound: CC(C)(C)c1cc2cc(NC(=O)c3ccc(Cl)cc3Cl)ccc2[nH]1 [Compound 5f, 2-t-Butyl-5-(2′,4′-dichlorophenylcarbonyl)aminoindole]
- Activity (concentration of inhibitory activity): a (“a” indicates inhibitory activity at a concentration of less than 10 micromolar)

Compound: Cc1ccsc1C(=O)Nc1ccc2[nH]c(C(C)(C)C)cc2c1 [Compound 5g, 2-t-Butyl-5-(3-methylthiophene-2-carbonyl)aminoindole]
- Activity (concentration of inhibitory activity): a (“a” indicates inhibitory activity at a concentration of less than 10 micromolar)

Compound: CC(C)(C)c1cc2cc(NC(=O)C(Cl)Cl)ccc2[nH]1 [Compound 5h, 2-t-Butyl-5-dichloroacetamidoindole]
- Activity (concentration of inhibitory activity): a (“a” indicates inhibitory activity at a concentration of less than 10 micromolar)

Compound: Cc1cn(C(=O)c2c(Cl)cccc2Cl)c2ccc(NC(=O)C3CCCC3)cc12 [Compound 9a, 5-(Cyclopentanecarbonyl)amino-1-(2′,6′-dichlorobenzoyl)-3-methylindole]
- Activity (concentration of inhibitory activity): a (“a” indicates inhibitory activity at a concentration of less than 10 micromolar)

Compound: CCCC(=O)Nc1ccc2c(c1)c(C)cn2C(=O)c1c(Cl)cccc1Cl [Compound 9b, 1-(2′,6′-Dichlorobenzoyl)-3-methyl-5-(n-propanecarbonyl)aminoindole]
- Activity (concentration of inhibitory activity): a (“a” indicates inhibitory activity at a concentration of less than 10 micromolar)

Compound: Cc1cn(C(=O)c2c(Cl)cccc2Cl)c2ccc(NC(=O)C3CCC3)cc12 [Compound 9c, 5-(Cyclobutanecarbonyl)amino-1-(2′,6′-dichlorobenzoyl)-3-methylindole]
- Activity (concentration of inhibitory activity): a (“a” indicates inhibitory activity at a concentration of less than 10 micromolar)

Compound: Cc1cn(C(=O)c2c(Cl)cccc2Cl)c2ccc(NC(=O)C3CC3)cc12 [Compound 9d, 5-(Cyclopropanecarbonyl)amino-1-(2′,6′-dichlorobenzoyl)-3-methylindole]
- Activity (concentration of inhibitory activity): a (“a” indicates inhibitory activity at a concentration of less than 10 micromolar)

Compound: CCCCC(=O)Nc1ccc2c(c1)c(C)cn2C(=O)c1c(Cl)cccc1Cl [Compound 9e, 5-(n-Butanecarbonyl)amino-1-(2′,6′-dichlorobenzoyl)-3-methylindole]
- Activity (concentration of inhibitory activity): a (“a” indicates inhibitory activity at a concentration of less than 10 micromolar)

Compound: C/C=C/C(=O)C(=O)Nc1ccc2c(c1)c(C)cn2C(=O)c1c(Cl)cccc1Cl [Compound 9f, 5-(trans-Crotonylcarbonyl)amino-1-(2′,6′-dichlorobenzoyl)-3-methylindole]
- Activity (concentration of inhibitory activity): a (“a” indicates inhibitory activity at a concentration of less than 10 micromolar)

Compound: Cc1c(C)n(C(=O)c2c(Cl)cccc2Cl)c2ccc(NC(=O)C3CCCCC3)cc12 [Compound 13a, 5-(Cyclohexanecarbonyl)amino-1-(2′,6′-dichlorobenzoyl)-2,3-dimethylindole]
- Activity (concentration of inhibitory activity): a (“a” indicates inhibitory activity at a concentration of less than 10 micromolar)

Compound: Cc1c(C)n(C(=O)c2c(Cl)cccc2Cl)c2ccc(NC(=O)C3CCCC3)cc12 [Compound 13b, 5-(Cyclopentanecarbonyl)amino-1-(2′,6′-dichlorobenzoyl)-2,3-dimethylindole]
- Activity (concentration of inhibitory activity): a (“a” indicates inhibitory activity at a concentration of less than 10 micromolar)

Compound: Cc1c(C)n(C(=O)c2c(Cl)cccc2Cl)c2ccc(NC(=O)C3CCC3)cc12 [Compound 13c, 5-(Cyclobutanecarbonyl)amino-1-(2′,6′-dichlorobenzoyl)-2,3-dimethylindole]
- Activity (concentration of inhibitory activity): a (“a” indicates inhibitory activity at a concentration of less than 10 micromolar)

Compound: Cc1c(C)n(C(=O)c2c(Cl)cccc2Cl)c2ccc(NC(=O)C3CC3)cc12 [Compound 13d, 5-(Cyclopropanecarbonyl)amino-1-(2′,6′-dichlorobenzoyl)-2,3-dimethylindole]
- Activity (concentration of inhibitory activity): a (“a” indicates inhibitory activity at a concentration of less than 10 micromolar)

Compound: CCCCC(=O)Nc1ccc2c(c1)c(C)c(C)n2C(=O)c1c(Cl)cccc1Cl [Compound 13e, 5-(n-Butanecarbonyl)amino-1-(2′,6′-dichlorobenzoyl)-2,3-dimethylindole]
- Activity (concentration of inhibitory activity): a (“a” indicates inhibitory activity at a concentration of less than 10 micromolar)

Compound: Cc1cc2cc(NC(=O)C3CCCCC3)ccc2n1C(=O)c1c(Cl)cccc1Cl [Compound 16a-2, 5-Cyclohexanecarbonylamino-1-(2′,6′-dichlorobenzoyl)-2-methylindole]
- Activity (concentration of inhibitory activity): a (“a” indicates inhibitory activity at a concentration of less than 10 micromolar)

Compound: Cc1cc2cc(NC(=O)C3CCC3)ccc2n1C(=O)c1c(Cl)cccc1Cl [Compound 16a-3, 5-Cyclobutanecarbonylamino-1-(2′,6′-dichlorobenzoyl)-2-methylindole]
- Activity (concentration of inhibitory activity): a (“a” indicates inhibitory activity at a concentration of less than 10 micromolar)

Compound: Cc1cc2cc(NC(=O)C3CC3)ccc2n1C(=O)c1c(Cl)cccc1Cl [Compound 16a-4, 5-Cyclopropanecarbonylamino-1-(2′,6′-dichlorobenzoyl)-2-methylindole]
- Activity (concentration of inhibitory activity): a (“a” indicates inhibitory activity at a concentration of less than 10 micromolar)

Compound: Cc1cc2cc(NC(=O)C(C)C)ccc2n1C(=O)c1c(Cl)cccc1Cl [Compound 16a-5, 1-(2′,6′-Dichlorobenzoyl)-5-(2-methylpropanoyl)amino-2-methylindole]
- Activity (concentration of inhibitory activity): a (“a” indicates inhibitory activity at a concentration of less than 10 micromolar)

Compound: CCC(C)C(=O)Nc1ccc2c(c1)cc(C)n2C(=O)c1c(Cl)cccc1Cl (stereo not shown) [Compound 16a-6, 1-(2′,6′-Dichlorobenzoyl)-5-(2-methylbutanoyl)amino-2-methylindole]
- Activity (concentration of inhibitory activity): a (“a” indicates inhibitory activity at a concentration of less than 10 micromolar)

Compound: CCCCC(=O)Nc1ccc2c(c1)cc(C)n2C(=O)c1c(Cl)cccc1Cl [Compound 16a-7, 1-(2′,6′-Dichlorobenzoyl)-5-(n-pentanoyl)amino-2-methylindole]
- Activity (concentration of inhibitory activity): a (“a” indicates inhibitory activity at a concentration of less than 10 micromolar)

Compound: C/C=C/C(=O)Nc1ccc2c(c1)cc(C)n2C(=O)c1c(Cl)cccc1Cl [Compound 16a-8, 5-(trans-Crotonyl)amino-1-(2′,6′-dichlorobenzoyl)-2-methylindole]
- Activity (concentration of inhibitory activity): a (“a” indicates inhibitory activity at a concentration of less than 10 micromolar)

Compound: CCC(CC)C(=O)Nc1ccc2c(c1)cc(C)n2C(=O)c1c(Cl)cccc1Cl [Compound 16a-9, 1-(2′,6′-Dichlorobenzoyl)-5-(2-ethylbutanoyl)amino-2-methylindole]
- Activity (concentration of inhibitory activity): a (“a” indicates inhibitory activity at a concentration of less than 10 micromolar)

Compound: Cc1cc2cc(NC(=O)c3cccnc3)ccc2n1C(=O)c1c(Cl)cccc1Cl [Compound 16a-10, 1-(2′,6′-Dichlorobenzoyl)-5-(3-pyridylcarbonyl)amino-2-methylindole]
- Activity (concentration of inhibitory activity): a (“a” indicates inhibitory activity at a concentration of less than 10 micromolar)

Compound: Cc1ccsc1C(=O)Nc1ccc2c(c1)cc(C)n2C(=O)c1c(Cl)cccc1Cl [Compound 16a-11, 1-(2′,6′-Dichlorobenzoyl)-5-(3-methyl-2-thiophenylcarbonyl)amino-2-methylindole]
- Activity (concentration of inhibitory activity): a (“a” indicates inhibitory activity at a concentration of less than 10 micromolar)

Compound: COc1cscc1C(=O)Nc1ccc2c(c1)cc(C)n2C(=O)c1c(Cl)cccc1Cl [Compound 16a-12, 1-(2′,6′-Dichlorobenzoyl)-5-(4-methoxy-3-thiophenylcarbonyl)amino-2-methylindole]
- Activity (concentration of inhibitory activity): a (“a” indicates inhibitory activity at a concentration of less than 10 micromolar)

Compound: Cc1cc2cc(NC(=O)Cc3cccnc3)ccc2n1C(=O)c1c(Cl)cccc1Cl [Compound 16a-13, 1-(2′,6′-Dichlorobenzoyl)-5-(3-pyridyl-2-acetamido)-2-methylindole]
- Activity (concentration of inhibitory activity): a (“a” indicates inhibitory activity at a concentration of less than 10 micromolar)
